Measured values: patent US20240252488A1 (KOREA RESEARCH INSTITUTE OF CHEMICAL TECHNOLOGY, priority 2020, published 2024)

Legend:
FADD−/− Jurkat cells = assay: Necroptosis inhibition assay, TNF-α-induced necroptosis (CellTiter-Glo 2.0); assay type: cell-based, human; settings: TNF-α 15 ng/mL; for Necroptosis inhibition assay (Rescue %) 1 μM: compound 1 μM; for Necroptosis inhibition assay (Rescue %) 10 μM: compound 10 μM
Procedure, shortened: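 Cells at 5.0×10^5 cells/mL were pretreated with compound (final 0.1, 1 and 10 μM) for 30 minutes at room temperature, then given TNF-α at 15 ng/mL final. After 20 to 24 hours at 37° C, 5% CO2, viability was read as ATP luminescence to calculate cytotoxicity and necroptosis inhibition rate.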

MLKL [1] = molecular target: T1, MLKL (Homo sapiens, UniProt Q8NB16); assay: MLKL degradation assay in HepG2 cell line (western blot); assay type: cell-based; design: endogenous in cells; host or cells: HepG2 or HaCaT; settings: cell line not given; for Degradation assay (Degradation %) 1 μM: compound 1 μM; for Degradation assay (Degradation %) 10 μM: compound 10 μM
T1 sequence (Q8NB16 1-471): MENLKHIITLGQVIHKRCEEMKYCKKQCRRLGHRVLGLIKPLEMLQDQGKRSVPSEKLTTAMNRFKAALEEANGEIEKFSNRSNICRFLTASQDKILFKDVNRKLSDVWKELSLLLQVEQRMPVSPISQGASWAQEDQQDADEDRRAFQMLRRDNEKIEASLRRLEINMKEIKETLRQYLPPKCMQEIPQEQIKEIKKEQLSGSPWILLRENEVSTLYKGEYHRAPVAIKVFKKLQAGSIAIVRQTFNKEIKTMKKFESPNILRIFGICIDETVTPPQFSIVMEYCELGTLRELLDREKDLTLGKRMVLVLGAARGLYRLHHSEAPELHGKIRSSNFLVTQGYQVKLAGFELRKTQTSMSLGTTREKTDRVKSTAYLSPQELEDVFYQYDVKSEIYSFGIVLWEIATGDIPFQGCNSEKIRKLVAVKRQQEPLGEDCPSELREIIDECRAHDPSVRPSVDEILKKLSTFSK
Procedure, shortened: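 HepG2 cells were exposed to compound at a final 1 or 10 μM for 20-24 hours at 37 °C, 5% CO2. RIPA lysates were normalized by BCA assay, 10-15 μg protein resolved by SDS-PAGE, and MLKL levels detected by western blot with chemiluminescence.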

MLKL [2] = molecular target: T1, MLKL; assay: Measurement of binding affinity with MLKL receptor (competitive binding assay, Kd); design: made in house; host or cells: HEK 293 cell line (T7 phage in E. coli BL21-derived host is also described)
Procedure, shortened: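 Kd comes from a bead-based competition format: compound-dependent loss of DNA-tagged, HEK 293-expressed MLKL capture, measured as eluate kinase by qPCR. Final DMSO is 0.9%.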

Row | Compound | Degradation assay (Degradation %) 1 μM (MLKL [1]) [%] | Degradation assay (Degradation %) 10 μM (MLKL [1]) [%] | Kd (MLKL [2]) [nM] | Necroptosis inhibition assay (Rescue %) 1 μM (FADD−/− Jurkat cells) [%] | Necroptosis inhibition assay (Rescue %) 10 μM (FADD−/− Jurkat cells) [%] | Necroptosis inhibition assay (Rescue %) 1 μM (FADD−/− Jurkat cells; FADD−/− Jurkat cells) [%] | Necroptosis inhibition assay (Rescue %) 10 μM (FADD−/− Jurkat cells; FADD−/− Jurkat cells) [%]
1 | Nc1ncc(-c2cnn(C3CCN(CCC4CCN(c5cccc6nnn(C7CCC(=O)NC7=O)c(=O)c56)CC4)CC3)c2)nc1C(=O)OC(C(=O)Nc1ccc(F)cc1)c1ccccc1 (centres unmarked) [TDH-294, 2-((4-fluorophenyl)amino)-2-oxo-1-phenylethyl 3-amino-6-(1-(1-(2-(1-(3-(2,6-dioxopiperidin-3-yl)-4-oxo-3,4-dihydrobenzo[d][1,2,3]triazin-5-yl)piperidin-4-yl)ethyl)piperidin-4-yl)-1H-pyrazol-4-yl)pyrazine-2-carboxylate] | 25.53 | 23.63 | 4.7 | 67.12 | 33.24 |  | 
2 | Nc1ncc(-c2cnn([C@H]3CCN(CC4CCN(C(=O)CNc5ccc6c(c5)C(=O)N(C5CCC(=O)NC5=O)C6=O)CC4)C3)c2)nc1C(=O)OC(C(=O)Nc1ccc(F)cc1)c1ccccc1 (stereo partly drawn) [TDH-282, 2-((4-fluorophenyl)amino)-2-oxo-1-phenylethyl 3-amino-6-(1-((3S)-1-((1-((2-(2,6-dioxopiperidin-3-yl)-1,3-dioxoisoindolin-5-yl)glycyl)piperidin-4-yl)methyl)pyrrolidin-3-yl)-1H-pyrazol-4-yl)pyrazine-2-carboxylate] | 60.51 | 58.02 | 5.6 | 77.92 | 67.84 |  | 
3 | Nc1ncc(-c2cnn(C3CCN(CCOCCNC(=O)C4CCN(c5cccc6c5C(=O)N(C5CCC(=O)NC5=O)C6=O)CC4)CC3)c2)nc1C(=O)O[C@@H](C(=O)Nc1ccc(F)cc1)c1ccccc1 (stereo partly drawn) [TDH-128, (R)-2-((4-fluorophenyl)amino)-2-oxo-1-phenylethyl 3-amino-6-(1-(1-(2-(2-(1-(2-(2,6-dioxopiperidin-3-yl)-1,3-dioxoisoindolin-4-yl)piperidine-4-carboxamido)ethoxy)ethyl)piperidin-4-yl)-1H-pyrazol-4-yl)pyrazine-2-carboxylate] | 11 | 68.52 | 14 | 26.22 | 56.56 |  | 
4 | Nc1ncc(-c2cnn(C3CCN(C(=O)CC4CCN(C(=O)C5CCN(c6cccc7c6C(=O)N(C6CCC(=O)NC6=O)C7=O)CC5)CC4)CC3)c2)nc1C(=O)O[C@@H](C(=O)Nc1ccc(F)cc1)c1ccccc1 (stereo partly drawn) [TDH-341, (R)-2-((4-fluorophenyl)amino)-2-oxo-1-phenylethyl 3-amino-6-(1-(1-(2-(1-(1-(2-(2,6-dioxopiperidin-3-yl)-1,3-dioxoisoindolin-4-yl)piperidine-4-carbonyl)piperidin-4-yl)acetyl)piperidin-4-yl)-1H-pyrazol-4-yl)pyrazine-2-carboxylate] | 70.78 | 51.56 | 3.5 | 38.23 | 24.8 |  | 
5 | Nc1ncc(-c2cnn(C3CCN(C(=O)COCCOCCNC(=O)C4CCN(c5ccc6c(c5)C(=O)N(C5CCC(=O)NC5=O)C6=O)CC4)CC3)c2)nc1C(=O)O[C@@H](C(=O)Nc1ccc(F)cc1)c1ccccc1 (stereo partly drawn) [TDH-195, (R)-2-((4-fluorophenyl)amino)-2-oxo-1-phenylethyl 3-amino-6-(1-(1-(2-(2-(2-(1-(2-(2,6-dioxopiperidin-3-yl)-1,3-dioxoisoindolin-5-yl)piperidine-4-carboxamido)ethoxy)ethoxy)acetyl)piperidin-4-yl)-1H-pyrazol-4-yl)pyrazine-2-carboxylate] | 63.85 | 29.78 | 6.9 | 80.66 | 39.24 |  | 

Now those with a lower Kd (MLKL [2]), led by results:

Row | Degradation assay (Degradation %) 1 μM (MLKL [1]) [%] | Degradation assay (Degradation %) 10 μM (MLKL [1]) [%] | Kd (MLKL [2]) [nM] | Compound | Necroptosis inhibition assay (Rescue %) 1 μM (FADD−/− Jurkat cells) [%] | Necroptosis inhibition assay (Rescue %) 10 μM (FADD−/− Jurkat cells) [%] | Necroptosis inhibition assay (Rescue %) 1 μM (FADD−/− Jurkat cells; FADD−/− Jurkat cells) [%] | Necroptosis inhibition assay (Rescue %) 10 μM (FADD−/− Jurkat cells; FADD−/− Jurkat cells) [%]
6 | 5.5 | 52.04 | 1.4 | Nc1ncc(-c2cnn(C3CCN(CCOCCOCCNC(=O)CNc4ccc5c(c4)C(=O)N(C4CCC(=O)NC4=O)C5=O)CC3)c2)nc1C(=O)O[C@@H](C(=O)Nc1ccc(F)cc1)c1ccccc1 (stereo partly drawn) [TDH-103, (R)-2-((4-fluorophenyl)amino)-2-oxo-1-phenylethyl 3-amino-6-(1-(1-(2-(2-(2-(2-((2-(2,6-dioxopiperidin-3-yl)-1,3-dioxoisoindolin-5-yl)amino)acetamido)ethoxy)ethoxy)ethyl)piperidin-4-yl)-1H-pyrazol-4-yl)pyrazine-2-carboxylate] | 34.93 | 59.65 |  | 
7 | 85.62 | 81.91 | 1.2 | Nc1ncc(-c2cnn(C3CCN(C[C@H]4CC[C@H](CNC(=O)COc5ccc6c(c5)C(=O)N(C5CCC(=O)NC5=O)C6=O)CC4)CC3)c2)nc1C(=O)O[C@@H](C(=O)Nc1ccc(F)cc1)c1ccccc1 (stereo partly drawn) [TDH-346, (R)-2-((4-fluorophenyl)amino)-2-oxo-1-phenylethyl 3-amino-6-(1-(1-(((1r,4r)-4-((2-((2-(2,6-dioxopiperidin-3-yl)-1,3-dioxoisoindolin-5-yl)oxy)acetamido)methyl)cyclohexyl)methyl)piperidin-4-yl)-1H-pyrazol-4-yl)pyrazine-2-carboxylate] | 57.41 | 24.57 |  | 
8 | 80.66 | 88.82 | 0.98 | Nc1ncc(-c2cnn(C3CCN(CCCN4CCN(C(=O)COc5ccc6c(c5)C(=O)N(C5CCC(=O)NC5=O)C6=O)CC4)CC3)c2)nc1C(=O)O[C@@H](C(=O)Nc1ccc(F)cc1)c1ccccc1Cl (stereo partly drawn) [TDH-494, (R)-1-(2-chlorophenyl)-2-((4-fluorophenyl)amino)-2-oxoethyl 3-amino-6-(1-(1-(3-(4-(2-((2-(2,6-dioxopiperidin-3-yl)-1,3-dioxoisoindolin-5-yl)oxy)acetyl)piperazin-1-yl)propyl)piperidin-4-yl)-1H-pyrazol-4-yl)pyrazine-2-carboxylate] |  |  | 43.07 | −7.06
9 | 89.95 | 82.82 | 0.61 | Nc1ncc(-c2cnn(C3CCN(CCC4CCN(C(=O)CCc5ccc6c(c5)C(=O)N(C5CCC(=O)NC5=O)C6=O)CC4)CC3)c2)nc1C(=O)O[C@@H](C(=O)Nc1ccc(F)cc1)c1ccccc1 (stereo partly drawn) [TDH-377, (R)-2-((4-fluorophenyl)amino)-2-oxo-1-phenylethyl 3-amino-6-(1-(1-(2-(1-(3-(2-(2,6-dioxopiperidin-3-yl)-1,3-dioxoisoindolin-5-yl)propanoyl)piperidin-4-yl)ethyl)piperidin-4-yl)-1H-pyrazol-4-yl)pyrazine-2-carboxylate] | 62.50 | 27.37 |  | 
10 | 57.4 | 17.94 | 0.22 | COc1ccc(C(=O)N2CCC(CCN3CCC(n4cc(-c5cnc(N)c(C(=O)O[C@@H](C(=O)Nc6ccc(F)cc6)c6ccccc6)n5)cn4)CC3)CC2)cc1N1CCC(=O)NC1=O [TDH-446, (R)-2-((4-fluorophenyl)amino)-2-oxo-1-phenylethyl 3-amino-6-(1-(1-(2-(1-(3-(2,4-dioxotetrahydropyrimidin-1(2H)-yl)-4-methoxybenzoyl)piperidin-4-yl)ethyl)piperidin-4-yl)-1H-pyrazol-4-yl)pyrazine-2-carboxylate] |  |  | 34.93 | 8.47
